Values quoted from earlier work as cited in patent US20200299317A1 (Tokuyama Corporation, priority 2018, published 2020).

Settings: ferric citrate obtainable per Patent Literature 2

ferric citrate
BET specific surface area: 20 to 45 m^2/g
